Series [1] deals with respiratory syncytial virus (RSV). Description: microbe, parasite or virus in culture. The series is classed as cell-based. The settings on record: human respiratory syncytial virus, read-out: Dir. Antiviral activity (EC50) RSV.
In a further series the test system is rats. The settings on record: rat, in vivo, po, 180 mg/kg.
The test system of a further series is Hepatitis B (HBV). The series can be described thus: microbe, parasite or virus in culture. The series is classed as cell-based. The settings on record: read-out: Dir. Antiviral activity (EC50) HBV.
A further series relates to Parainfluenza (PARA) 1. The series can be described thus: organism not typed. The series is classed as cell-based, Parainfluenza 1. The conditions noted are these: read-out: Dir. Antiviral activity (EC50) PARA 1.
In series [2] the test system is cells infected with HIV. The settings on record: cited from earlier work.
Series [3] is described as follows: Cytotoxicity in Influenza A assay. The series is classed as cell-based. The conditions noted are these: cells infected with Influenza A; read-out: Cytotoxicity (CC50) INFL. A. The procedure:
(§1) In vitro testing for direct antiviral activity of Levovirin™ and Ribavirin against influenza A and B, parainfluenza 1 and 2, and respiratory syncytial virus were performed as described in Huffman, J. H. et al. Antiviral Chem. and Chemother. 1997, 8: 75-83 and Barnard, D. L. et al. Antiviral Chem. and Chemother 1997, 8: 223-233. Anti-human immunodeficiency virus activity was assessed by the National Cancer Institute using a procedure designed to detect agents acting at any stage of the virus reproductive cycle [Weislow, O. W. et al., J. Natl. Cancer Inst. 1989, 81: 577-5861. Anti-hepatitis B (HBV) activity was monitored by using an assay as described by Marion et al., Hepatology 1987, 7: 724-731. Anti-HIV activity and cytotoxicity for Ribavirin was determined from previous data [McCormick, J. B., Lancet, 1998, II: 1367-1369.

The subject of a further series is Influenza (INFL) B. Description: Direct antiviral activity, Influenza B. The series is classed as cell-based. The conditions noted are these: Influenza B virus; read-out: Dir. Antiviral activity (EC50) INFL. B. On the procedure:
as §1

Another series relates to IFN-γ. The series can be described thus: SEB-activated T cell cytokine ELISA, IFN-γ. In kind it is cell-based, human. A general note: In an ELISA, binding on a coated surface is turned into a signal by an enzyme label.
Another series concerns Influenza (INFL) A. Description: microbe, parasite or virus in culture. In kind it is cell-based. The conditions noted are these: read-out: Dir. Antiviral activity (EC50) INFL. A.
Series [4] concerns Concanavalin A induced hepatitis. The series is classed as in vivo. The settings on record: BALB/c mice, single i.p. dose 20 μg (1 mg/kg) 1 hr before i.v. 0.3 mg Con A; serum after 24 hr; PBS control about 1900 U/ml.
A short description of series [5]: Cytotoxicity in Influenza B assay. In kind it is cell-based. The conditions noted are these: cells infected with Influenza B; read-out: Cytotoxicity (CC50) INFL. B. The procedure: as §1
Another series has as its system TNF-α. The series can be described thus: SEB-activated T cell cytokine ELISA, TNF-α. The series is classed as cell-based, human.
The test system of the next series is Parainfluenza (PARA) 3. The series can be described thus: organism not typed. The conditions noted are these: read-out: Dir. Antiviral activity (EC50) PARA 3. In kind it is cell-based, Parainfluenza 3.
Series [6] deals with human immunodeficiency virus (HIV). The settings on record: read-out: Dir. Antiviral activity (EC50) HIV; cited from earlier work.
A further series deals with IL-2. The series can be described thus: SEB-activated T cell cytokine ELISA, IL-2. In kind it is cell-based, human.
Series [7] deals with cells infected with Influenza A. The series can be described thus: Cytotoxicity in Influenza A assay. In kind it is cell-based. The conditions noted are these: read-out: Cytotoxicity (CC50) INFL. A. The procedure:
as §1

The subject of series [8] is cells infected with Parainfluenza 1.
Series [9] deals with cells infected with Parainfluenza 3.
For series [10], the system named is cells infected with Influenza B. The series can be described thus: Cytotoxicity in Influenza B assay. The series is classed as cell-based. The conditions noted are these: read-out: Cytotoxicity (CC50) INFL. B. On the procedure: as §1
Series [11] relates to human immunodeficiency virus (HIV). The series can be described thus: microbe, parasite or virus in culture. The settings on record: Human immunodeficiency virus 1, read-out: Dir. Antiviral activity (EC50) HIV. The series is classed as cell-based.
The subject of series [12] is cells infected with HIV.
[13] abbreviates: SEB stimulated T cells, 48 hrs, 0-10 μM compound, +/- standard deviation, 100% = no effect.

Read-outs that look alike come from different tables or passages of the source.

On to `NC(=O)c1ncn([C@@H]2O[C@H](CO)[C@@H](O)[C@H]2O)n1` [Ribavirin], for which the EC50 in series [1] was 5 µM; in the series with Hepatitis B (HBV) it was more than 100 µM; in the series with Parainfluenza (PARA) 1, 40 µM; with Influenza (INFL) B, 1.9 µM; in the series with Influenza (INFL) A, 6.1 µM; in the series with Parainfluenza (PARA) 3, 4 µM. Besides, the 50% effective concentration (EC50) in [6] is 40 µM. For the same molecule, the “Clinical pathology (hemolytic anemia, leukopenia)” value in the series with rats is “produced significant hemolytic anemia and leukopenia”. Also, the half-maximal cytotoxic concentration (CC50) in the series on cells infected with HIV [2] was more than 40 µM; in series [3] it was 56 µM; in [5], more than 100 µM. For the same molecule, the “IFN-γ, mean percentage of activated control” value in the series with IFN-γ (setting [13]) stood at 131 ± 6%. Moreover, in series [4], the “Con A induced serum ALT level” value is reported as 969 U/ml. In the series on TNF-α (setting [13]), the “TNF-α, mean percentage of activated control” value worked out at 124 ± 4%. For the same molecule, the “IL-2, mean percentage of activated control” value in the series on IL-2 (setting [13]) stood at 143 ±18%.

As to `NC(=O)c1ncn([C@H]2O[C@@H](CO)[C@H](O)[C@@H]2O)n1` [Levovirin™, 1-(β-L-ribofuranosyl)-1,2,4-triazole-3-carboxamide], the 50% effective concentration (EC50) in series [1] was more than 1000 µM; in the series with Hepatitis B (HBV), more than 100 µM; in the series on Parainfluenza (PARA) 1, more than 1000 µM; in the series with Influenza (INFL) A it was more than 200 µM; in series [11], more than 600 µM; with Parainfluenza (PARA) 3 it was more than 1000 µM. In the series with rats, the “Clinical pathology (hemolytic anemia, leukopenia)” value is “did not produce any observable clinical pathology”. Moreover, the CC50 in [7] is more than 200 µM; in series [8] it was more than 1000 µM; in [9], more than 1000 µM; in series [10], more than 200 µM; in the series with cells infected with HIV [12] it was more than 600 µM. For the same molecule, in the series on IFN-γ, the “IFN-γ, mean percentage of activated control” value is 122 ± 3%. The “TNF-α, mean percentage of activated control” value in the series on TNF-α was 144 ± 7%. For the same molecule, the “IL-2, mean percentage of activated control” value with IL-2 is 131 ± 12%.

What is called EC50 is the concentration that produces a half-maximal response. For orientation: CC50 means the concentration that lowers cell viability or growth by half.
